Measured values taken from the supplement of paper PMC11061612.

Key:
Assay in all cases: Bliss excess, mean over the matrix (fraction); higher = more synergy
[1] = tested on: AsPC-1 (Pancreatic Carcinoma)
Method in brief: (§1)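 Bliss excess equals the observed combination effect minus the expected value EA + EB − EA·EB, where EA and EB are the effects of each agent alone. Combination Emax is the second-highest inhibition within the matrix. Inhibition was scaled from CellTiter-Glo 2.0 luminescence, with 0 set by vehicle wells and 1 by blank wells, after 72 hours of two-drug dosing of cells plated in 1536-well plates.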

[2] = tested on: BALL-1 (B-Lymphoblastic Leukemia)
Method in brief: as §1

[3] = tested on: Becker (Low Grade Glioma)
Method in brief: as §1

CHL-1 (Melanoma) = tested on: CHL-1 (Melanoma)
Method in brief: as §1

[4] = tested on: COLO-684 (Endometrial Carcinoma)
Method in brief: as §1

[5] = tested on: HSC-3 (Oral Cavity Carcinoma)
Method in brief: as §1

KYM-1 (Rhabdomyosarcoma) = tested on: KYM-1 (Rhabdomyosarcoma)
Method in brief: as §1

[6] = tested on: KYSE-70 (Esophageal Squamous Cell Carcinoma)
Method in brief: as §1

[7] = tested on: LOUCY (T-Lymphoblastic Leukemia)
Method in brief: as §1

[8] = tested on: NCI-H1155 (Non-Small Cell Lung Carcinoma)
Method in brief: as §1

[9] = tested on: NCI-H1623 (Lung Adenocarcinoma)
Method in brief: as §1

[10] = tested on: NCI-H810 (Non-Small Cell Lung Carcinoma)
Method in brief: as §1

[11] = tested on: NKM-1 (Acute Myeloid Leukemia)
Method in brief: as §1

[12] = tested on: OCI-AML5 (Acute Myeloid Leukemia)
Method in brief: as §1

[13] = tested on: OV-90 (Ovarian Carcinoma)
Method in brief: as §1

[14] = tested on: PC-14 (Lung Adenocarcinoma)
Method in brief: as §1

[15] = tested on: RERF-LC-KJ (Lung Adenocarcinoma)
Method in brief: as §1

[16] = tested on: RL95-2 (Endometrial Carcinoma)
Method in brief: as §1

[17] = tested on: RMG-I (Ovarian Carcinoma)
Method in brief: as §1

[18] = tested on: SW684 (Other Solid Carcinomas)
Method in brief: as §1

Row | SMILES | Bliss excess [1] | Bliss excess [2] | Bliss excess [3] | Bliss excess (CHL-1 (Melanoma)) | Bliss excess [4] | Bliss excess [5] | Bliss excess (KYM-1 (Rhabdomyosarcoma)) | Bliss excess [6] | Bliss excess [7] | Bliss excess [8] | Bliss excess [9] | Bliss excess [10] | Bliss excess [11] | Bliss excess [12] | Bliss excess [13] | Bliss excess [14] | Bliss excess [15] | Bliss excess [16] | Bliss excess [17] | Bliss excess [18]
1 | C=CCn1c(=O)c2cnc(Nc3ccc(N4CCN(C)CC4)cc3)nc2n1-c1cccc(C(C)(C)O)n1 [AZD1775] + C1CN(CCC1(C(=O)N[C@@H](CCO)C2=CC=C(C=C2)Cl)N)C3=NC=NC4=C3C=CN4 [Capivasertib] (first compound max 3 µM, partner max 3 µM) | -0.0654 | 0.0591 | -0.0716 | 0.0106 | -0.0937 | 0.0552 | -0.0084 | -0.0193 | 0.0157 | 0.0056 | -0.0576 | -0.0404 | -0.0746 | -0.0443 | -0.0235 | -0.018 | -0.0117 | 0.0093 | -0.0349 | -0.0351
2 | C=CCn1c(=O)c2cnc(Nc3ccc(N4CCN(C)CC4)cc3)nc2n1-c1cccc(C(C)(C)O)n1 [AZD1775] + C[C@@H]1COCCN1C2=NC(=NC(=C2)C3(CC3)[S@](=N)(=O)C)C4=C5C=CNC5=NC=C4 [AZD6738] (first compound max 1 µM, partner max 10 µM) | -0.0571 | 0.0441 | 0.0428 | -0.0012 | 0.0245 | 0.0038 | 0.0587 | 0.0329 | 0.025 | 0.0817 | 0.0057 | 0.0223 | 0.0023 | 0.005 | -0.102 | -0.005 | -0.0151 | 0.0402 | -0.0161 | -0.0662
3 | C=CCn1c(=O)c2cnc(Nc3ccc(N4CCN(C)CC4)cc3)nc2n1-c1cccc(C(C)(C)O)n1 [AZD1775] + O=C(c1cc(Cc2n[nH]c(=O)c3ccccc23)ccc1F)N1CCN(C(=O)C2CC2)CC1 [Olaparib] (first compound max 1 µM, partner max 10 µM) | 0.0039 | 0.0054 | -0.0254 | -0.0491 | -0.12 | 0.0013 | 0.0188 | -0.0188 | 0.0492 | 0.0355 | -0.0233 | -0.038 | -0.0375 | -0.0096 | -0.0424 | -0.0248 | -0.035 | -0.0372 | -0.0105 | -0.0689
4 | CCN(CCO)CCCOc1ccc2c(Nc3cc(CC(=O)Nc4cccc(F)c4)[nH]n3)ncnc2c1 [AZD2811] + C=CCn1c(=O)c2cnc(Nc3ccc(N4CCN(C)CC4)cc3)nc2n1-c1cccc(C(C)(C)O)n1 [AZD1775] (first compound max 1 µM, partner max 1 µM) | -0.0738 | 0.0612 | -0.0465 | 0.0161 | -0.0443 | 0.0504 | -0.0096 | -0.0449 | -0.019 | 0.0451 | 0.009 | -0.0022 | 0.0269 | -0.0295 | 0.021 | -0.0026 | 0.0515 | 0.0389 | -0.0711 | -0.0454
5 | CCN(CCO)CCCOc1ccc2c(Nc3cc(CC(=O)Nc4cccc(F)c4)[nH]n3)ncnc2c1 [AZD2811] + C[C@@H]1COCCN1C2=NC(=NC(=C2)C3(CC3)[S@](=N)(=O)C)C4=C5C=CNC5=NC=C4 [AZD6738] (first compound max 1 µM, 7x7, partner max 10 µM) | -0.0164 | 0.0288 | -0.0343 | -0.0344 | -0.0913 | -0.0195 | -0.0214 | -0.0383 | -0.0518 | -0.0099 | -0.0271 | -0.0764 | 0.0425 | -0.0299 | -0.0772 | -0.0492 | -0.0512 | -0.0873 | -0.0734 | -0.073
6 | CCN(CCO)CCCOc1ccc2c(Nc3cc(CC(=O)Nc4cccc(F)c4)[nH]n3)ncnc2c1 [AZD2811] + O=C(c1cc(Cc2n[nH]c(=O)c3ccccc23)ccc1F)N1CCN(C(=O)C2CC2)CC1 [Olaparib] (first compound max 1 µM, 7x7, partner max 10 µM) | -0.0273 | 0.147 | -0.0371 | -0.0035 | -0.0102 | 0.0273 | 0.0071 | 0.0005 | -0.0463 | 0.0393 | -0.0526 | -0.016 | 0.0342 | -0.0224 | -0.0026 | 0.0228 | -0.0471 | -0.0101 | -0.0141 | -0.0219
7 | CN(CCO)CC[C@H](CSc1ccccc1)Nc1ccc(S(=O)(=O)NC(=O)c2ccc(N3CCC([C@@H](O)c4ccccc4-c4ccc(Cl)cc4)CC3)cc2)cc1S(=O)(=O)C(F)(F)F [AZD4320] + C1CN(CCC1(C(=O)N[C@@H](CCO)C2=CC=C(C=C2)Cl)N)C3=NC=NC4=C3C=CN4 [Capivasertib] (first compound max 1 µM, 7x7, partner max 3 µM) | -0.0665 | 0.0012 | -0.0355 | -0.028 | -0.0157 | -0.037 | -0.021 | -0.0273 | 0.0753 | 0.0147 | -0.002 | -0.0595 | 0.0099 | 0.0104 | -0.0635 | -0.03 | -0.0282 | -0.0192 | -0.0527 | -0.0619
8 | CN(CCO)CC[C@H](CSc1ccccc1)Nc1ccc(S(=O)(=O)NC(=O)c2ccc(N3CCC([C@@H](O)c4ccccc4-c4ccc(Cl)cc4)CC3)cc2)cc1S(=O)(=O)C(F)(F)F [AZD4320] + C=CCn1c(=O)c2cnc(Nc3ccc(N4CCN(C)CC4)cc3)nc2n1-c1cccc(C(C)(C)O)n1 [AZD1775] (first compound max 1 µM, partner max 1 µM) | 0.047 | 0.0065 | 0.0046 | 0.0509 | -0.0301 | -0.0083 | 0.0515 | -0.0011 | 0.002 | 0.0675 | 0.0318 | 0.0105 | 0.035 | 0.0099 | 0.0909 | 0.0069 | -0.0076 | 0.006 | 0.0664 | -0.0416
9 | CN(CCO)CC[C@H](CSc1ccccc1)Nc1ccc(S(=O)(=O)NC(=O)c2ccc(N3CCC([C@@H](O)c4ccccc4-c4ccc(Cl)cc4)CC3)cc2)cc1S(=O)(=O)C(F)(F)F [AZD4320] + CCN(CCO)CCCOc1ccc2c(Nc3cc(CC(=O)Nc4cccc(F)c4)[nH]n3)ncnc2c1 [AZD2811] (first compound max 1 µM, 7x7, partner max 1 µM) | -0.0294 | 0.14 | -0.027 | 0.133 | -0.0217 | 0.0257 | -0.01 | 0.0483 | -0.0011 | 0.127 | -0.0045 | 0.0178 | 0.0403 | -0.004 | 0.0409 | 0.0099 | -0.028 | 0.119 | -0.0297 | -0.0717
10 | CN(CCO)CC[C@H](CSc1ccccc1)Nc1ccc(S(=O)(=O)NC(=O)c2ccc(N3CCC([C@@H](O)c4ccccc4-c4ccc(Cl)cc4)CC3)cc2)cc1S(=O)(=O)C(F)(F)F [AZD4320] + CN(C)CCCOc1ccc(-c2ccc3ncc4c(c3c2)n(C2CCOCC2)c(=O)n4C)cn1 [AZD0156] (first compound max 1 µM, 7x7, partner max 1 µM) | -0.0506 | -0.0185 | -0.035 | -0.0242 | -0.0218 | -0.0532 | -0.0256 | -0.0124 | -0.006 | -0.0105 | -0.071 | -0.0328 | -0.0871 | -0.0015 | -0.0141 | -0.019 | -0.0413 | -0.0408 | -0.048 | -0.0641
11 | CN(CCO)CC[C@H](CSc1ccccc1)Nc1ccc(S(=O)(=O)NC(=O)c2ccc(N3CCC([C@@H](O)c4ccccc4-c4ccc(Cl)cc4)CC3)cc2)cc1S(=O)(=O)C(F)(F)F [AZD4320] + C[C@@H]1COCCN1C2=NC(=NC(=C2)C3(CC3)[S@](=N)(=O)C)C4=C5C=CNC5=NC=C4 [AZD6738] (first compound max 1 µM, 7x7, partner max 10 µM) | -0.109 | 0.0096 | -0.0186 | 0.0607 | -0.0589 | -0.054 | 0.0286 | -0.0096 | -0.0092 | 0.0351 | -0.0101 | -0.0762 | 0.0067 | 0.0284 | -0.0354 | -0.0133 | -0.0377 | -0.0163 | -0.13 | -0.0548
12 | CN(CCO)CC[C@H](CSc1ccccc1)Nc1ccc(S(=O)(=O)NC(=O)c2ccc(N3CCC([C@@H](O)c4ccccc4-c4ccc(Cl)cc4)CC3)cc2)cc1S(=O)(=O)C(F)(F)F [AZD4320] + C[C@@H](Nc1cc(F)cc(F)c1)c1cc(C(=O)N(C)C)cc2c(=O)cc(N3CCOCC3)oc12 [AZD8186] (first compound max 1 µM, 7x7, partner max 3 µM) | -0.0141 | 0.0506 | 0.0186 | 0.0322 | 0.0193 | 0.0482 | 0.0193 | 0.0092 | 0.0111 | 0.075 | 0.0105 | -0.0461 | 0.0224 | 0.0823 | -0.0073 | 0.0228 | 0.0703 | -0.0036 | -0.0066 | -0.0356
13 | CN(CCO)CC[C@H](CSc1ccccc1)Nc1ccc(S(=O)(=O)NC(=O)c2ccc(N3CCC([C@@H](O)c4ccccc4-c4ccc(Cl)cc4)CC3)cc2)cc1S(=O)(=O)C(F)(F)F [AZD4320] + Cc1cc2ncnn2cc1Nc1ncc2c(n1)n(C1CCOCC1)c(=O)n2C [AZD7648] (first compound max 1 µM, 7x7, partner max 10 µM) | -0.0575 | 0.0087 | -0.0211 | -0.0391 | -0.0221 | -0.0051 | -0.018 | -0.0225 | 0.0365 | 0.017 | -0.0206 | 0.004 | 0.0153 | 0.0193 | -0.055 | -0.0188 | -0.0314 | -0.0186 | -0.0676 | -0.0628
